Source: US12606520B2, “Calpain-2 inhibitor compounds and methods of treatment” (WESTERN UNIVERSITY OF HEALTH SCIENCES, priority 2020, dated 2026)

Experiments:
[1] = biological target: T1, human calpain-1 (purified from erythrocytes, ecalpain-1) (Homo sapiens, UniProt P07384); assay: Inhibition of human calpain-1 purified from erythrocytes; assay type: biochemical
T1 construct: human calpain-1 (purified from erythrocytes, ecalpain-1); from tissue; host or cells: human erythrocytes
T1 sequence (P07384 1-714): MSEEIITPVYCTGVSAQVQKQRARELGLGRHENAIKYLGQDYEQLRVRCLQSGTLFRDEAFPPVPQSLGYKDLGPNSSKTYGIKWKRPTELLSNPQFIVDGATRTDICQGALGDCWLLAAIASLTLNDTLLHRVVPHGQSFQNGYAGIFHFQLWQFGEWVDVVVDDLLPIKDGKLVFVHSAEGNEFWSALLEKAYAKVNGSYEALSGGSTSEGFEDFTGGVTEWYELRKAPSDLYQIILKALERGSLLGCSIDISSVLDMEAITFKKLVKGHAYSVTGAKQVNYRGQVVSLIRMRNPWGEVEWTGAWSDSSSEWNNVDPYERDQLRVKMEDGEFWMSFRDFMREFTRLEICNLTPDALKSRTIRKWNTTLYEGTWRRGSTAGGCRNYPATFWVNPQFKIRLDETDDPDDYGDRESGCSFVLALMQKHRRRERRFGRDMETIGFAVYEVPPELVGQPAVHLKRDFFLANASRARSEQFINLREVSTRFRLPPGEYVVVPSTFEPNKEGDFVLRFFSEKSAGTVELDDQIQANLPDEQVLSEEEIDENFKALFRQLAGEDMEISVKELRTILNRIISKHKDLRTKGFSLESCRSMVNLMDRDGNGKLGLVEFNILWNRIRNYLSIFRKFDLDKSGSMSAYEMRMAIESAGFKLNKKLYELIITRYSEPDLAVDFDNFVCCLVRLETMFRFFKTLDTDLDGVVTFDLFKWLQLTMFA
T1 sequence (P04632 1-268 partner): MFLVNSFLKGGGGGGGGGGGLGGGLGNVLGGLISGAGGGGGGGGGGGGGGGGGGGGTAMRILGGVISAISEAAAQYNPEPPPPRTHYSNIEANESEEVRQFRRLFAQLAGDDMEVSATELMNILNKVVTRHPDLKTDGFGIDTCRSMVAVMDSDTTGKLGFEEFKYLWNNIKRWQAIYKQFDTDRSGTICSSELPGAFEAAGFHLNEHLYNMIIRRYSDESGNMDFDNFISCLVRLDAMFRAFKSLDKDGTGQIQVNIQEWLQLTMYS
Description: Various concentrations of NA112 in the liposomal formulation were incubated with human calpain-1 (purified from erythrocytes, ecalpain-1) or a recombinant human calpain-2 (hcalpain-2) and calpain activity assayed as in FIG. 1. IC50 were determined and transformed into Ki values (FIG. 10A, 10B). Values previously obtained with NA112 dissolved in DMSO are shown for comparison (FIG. 10B).
Cerebellar homogenates from wild-type (WT) or calpain-1 Knock-out (KO) mice were incubated with 20 μM calcium to activate calpain-1 or with 2 mM calcium to activate calpain-2, respectively, and increasing concentrations of NA184.
Like in NA112, there are 2 chiral centers in NA184. The inhibitory activity of the compounds NA184A (S-S isomer) and NA184B (S-R stereoisomer) against erythrocyte human calpain-1 (ecalpain-1) and recombinant human calpain-2 (hcalpain-2) were determined.

calpain-1 = biological target: T2, calpain-1 (Rattus norvegicus, UniProt P97571); assay: Calpain-1 activity in brain after TBI in rats; assay type: in vivo; conditions: 1 mg/kg i.p. at 1 h and 8 h after TBI, 24 h after TBI
T2 construct: from tissue; host or cells: rat brain after TBI
T2 sequence (P97571 1-713): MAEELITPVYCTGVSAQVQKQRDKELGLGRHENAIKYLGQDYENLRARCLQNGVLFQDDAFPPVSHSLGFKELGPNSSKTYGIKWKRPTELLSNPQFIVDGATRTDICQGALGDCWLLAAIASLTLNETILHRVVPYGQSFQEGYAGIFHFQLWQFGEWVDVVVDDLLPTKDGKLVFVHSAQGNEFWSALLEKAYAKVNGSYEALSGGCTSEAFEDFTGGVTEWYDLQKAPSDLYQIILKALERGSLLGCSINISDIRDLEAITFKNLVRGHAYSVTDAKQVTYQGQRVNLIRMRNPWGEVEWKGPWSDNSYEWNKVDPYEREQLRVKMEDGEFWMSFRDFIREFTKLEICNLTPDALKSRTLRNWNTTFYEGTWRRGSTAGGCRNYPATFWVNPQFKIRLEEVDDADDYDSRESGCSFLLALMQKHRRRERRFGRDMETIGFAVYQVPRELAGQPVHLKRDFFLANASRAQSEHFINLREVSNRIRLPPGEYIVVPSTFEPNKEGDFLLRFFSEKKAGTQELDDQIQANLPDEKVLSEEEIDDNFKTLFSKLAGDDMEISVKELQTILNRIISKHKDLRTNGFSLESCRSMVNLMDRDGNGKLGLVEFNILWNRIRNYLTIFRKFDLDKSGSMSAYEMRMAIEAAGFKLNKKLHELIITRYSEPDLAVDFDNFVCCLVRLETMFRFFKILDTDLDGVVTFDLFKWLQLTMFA
T2 sequence (Q64537 1-270 partner): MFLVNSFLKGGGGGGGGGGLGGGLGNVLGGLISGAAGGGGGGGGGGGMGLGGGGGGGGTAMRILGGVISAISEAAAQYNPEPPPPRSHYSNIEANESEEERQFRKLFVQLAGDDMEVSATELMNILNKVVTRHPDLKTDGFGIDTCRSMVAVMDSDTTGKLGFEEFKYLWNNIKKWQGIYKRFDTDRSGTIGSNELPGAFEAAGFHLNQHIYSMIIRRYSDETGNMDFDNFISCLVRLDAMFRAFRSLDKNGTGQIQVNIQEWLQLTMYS
Description: (§1) We also performed the same model of TBI in male and female mice and in male and female rats. In all cases, NA184 was injected i.p. at 1 mg/kg. For the rat experiments, NA184 was injected twice at 1 h and 8 h after TBI. Animals were sacrificed 24 h after TBI and calpain activity was assayed in brain and cell death was analyzed in cortex. […] In addition, there was a highly significant correlation between calpain-2 activity and cell death in rats (FIG. 23). R^2 was 0.61 and p<0.005.

cell death in cortex = assay: Cell death in cortex 24 h after TBI in rats; assay type: in vivo; conditions: 1 mg/kg i.p. at 1 h and 8 h after TBI
Description: as §1

[2] = Stability in mouse plasma at 37° C. (residual inhibition of purified human calpain-2); assay type: in vitro ADME; conditions: mouse, mouse plasma, B-cyclodextrin formulation, 0.2 mM, read-out: Estimated half-life in mouse plasma (converted)
Description: NA112 (C12, 0.2 mM) was incubated with mouse plasma at 37° C. for the indicated periods of time. Aliquots were taken and the degree of inhibition of purified human calpain-2 was measured. Results were normalized to the maximum degree of inhibition (100%) measured at to.
NA112A in β-cyclodextrin formulation (10 μM) was incubated in mouse plasma at 37° C. for the indicated periods of time. Aliquots were taken and the degree of inhibition of purified human calpain-2 was measured. Results were normalized to the maximum degree of inhibition (50%) measured at t0.

SMILES | IC50 [1] [nM] | Calpain-1 inhibition in brain, male and female rats (calpain-1) | Cell death in cortex, male and female rats (cell death in cortex) | half-life at 0.2 mM [2] [h]
CCC(NC(=O)[C@H](CC(C)C)NC(=O)NCc1ccccc1)C(=O)C(=O)NCc1cccc(Cl)c1OC (stereo partly drawn) [NA184, (2S)-2-(3-benzylureido)-N-(1-((3-chloro-2-methoxybenzyl)amino)-1,2-dioxopentan-3-yl)-4-methylpentanamide] | 543 | not calpain-1 | significantly prevented cell death | –
CCC(NC(=O)[C@H](CC(C)C)NC(=O)NCc1ccccc1)C(=O)C(=O)NCc1cc(OC)cc(OC)c1 (mixture of isomers) [NA112, (2S)-2-(3-benzylureido)-N-(1-((3,5-dimethoxybenzyl)amino)-1,2-dioxopentan-3-yl)-4-methylpentanamide] | – | – | – | 17
